Reference: US7902200B2, “Chemical compounds” (AstraZeneca AB, priority 2006, dated 2011)

What was measured:
[1] = target: T1, recombinant human pancreatic GLK (Homo sapiens, UniProt P35557); test: GKH1 variant of GLK enzymatic activity assay (manual bench-top rate assay); assay type: biochemical; conditions: activation of GLK; 60 nmol/l GLK; rate over 5 minute window; no GLKRP
T1 construct: 6-His (N); made in house; host or cells: E. coli BL21
T1 sequence (P35557 1-465): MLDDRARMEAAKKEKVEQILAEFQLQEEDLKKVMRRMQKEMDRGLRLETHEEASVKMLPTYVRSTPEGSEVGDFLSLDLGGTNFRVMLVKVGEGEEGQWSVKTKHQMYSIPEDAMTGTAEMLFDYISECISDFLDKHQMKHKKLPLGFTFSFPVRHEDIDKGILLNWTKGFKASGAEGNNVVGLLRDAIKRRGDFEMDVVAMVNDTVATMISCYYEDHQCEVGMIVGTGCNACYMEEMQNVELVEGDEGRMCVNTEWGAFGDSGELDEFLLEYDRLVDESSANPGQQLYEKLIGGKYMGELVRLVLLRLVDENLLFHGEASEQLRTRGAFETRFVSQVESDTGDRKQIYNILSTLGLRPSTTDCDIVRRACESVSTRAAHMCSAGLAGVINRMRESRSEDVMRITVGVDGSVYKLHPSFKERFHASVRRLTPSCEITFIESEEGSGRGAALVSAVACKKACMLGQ
Experimental: (§1) Enzymatic activity of recombinant human pancreatic GLK may be measured by incubating GLK, ATP and glucose. The rate of product formation may be determined by coupling the assay to a G-6-P dehydrogenase, NADP/NADPH system and measuring the linear increase with time of optical density at 340 nm (Brocklehurst et al (Diabetes 2004, 53, 535-541). Activation of GLK by compounds can be assessed using this assay in the presence or absence of GLKRP as described in Brocklehurst et al (Diabetes 2004, 53, 535-541).
(§2) One or both of two variants of this assay, GKH1 and GKH4, were used to test the compounds of the invention. The GKH1 assay is a manual, bench-top rate assay using 60 nmol/l of recombinant human pancreatic GLK. The GLK activity rate is measured over a 5 minute window using a Multiskan Ascent spectrophotometer. The GKH4 assay is an automated end-point assay using 10 nmol/l of recombinant human pancreatic GLK. The GLK activity is measured at 10 minutes after the initiation of the assay on a Perkin Elmer Envision spectrophotometer.

[2] = target: T1, recombinant human pancreatic GLK; test: GKH4 variant of GLK enzymatic activity assay (automated end-point assay); assay type: biochemical; conditions: activation of GLK; 10 nmol/l GLK; end-point at 10 minutes; no GLKRP
Experimental: as §1, §2

| EC50 [1] | EC50 [2] | SMILES |
| --- | --- | --- |
| 90 nM | 300 nM | Cc1cnc(NC(=O)c2cc(Oc3ccc(C(=O)N4CCC4)nc3)cc(O[C@H]3CCN(C)C3=O)c2)cn1 [Example 1, 3-[6-(Azetidine-1-carbonyl)pyridin-3-yl]oxy-5-[(3S)-1-methyl-2-oxo-pyrrolidin-3-yl]oxy-N-(5-methylpyrazin-2-yl)benzamide] |
| 3930 nM |  | Cc1cnc(NC(=O)c2cc(Oc3ccc(C(=O)N4CCC4)nc3)cc(O[C@@H]3CCN(C)C3=O)c2)cn1 [Example 2, 3-[6-(Azetidine-1-carbonyl)pyridin-3-yl]oxy-5-[(3R)-1-methyl-2-oxo-pyrrolidin-3-yl]oxy-N-(5-methylpyrazin-2-yl)benzamide] |
| 140 nM | 310 nM | Cc1cnc(NC(=O)c2cc(Oc3ccc4c(c3)OCCN(C)S4(=O)=O)cc(O[C@H]3CCN(C)C3=O)c2)cn1 [Example 11, 3-[(5-methyl-6,6-dioxo-2-oxa-6-λ^6-thia-5-azabicyclo[5.4.0]undeca-8,10,12-trien-10-yl)oxy]-5-(1-methyl-2-oxo-pyrrolidin-3-yl)oxy-N-(5-methylpyrazin-2-yl)benzamide] |
| 300 nM | 430 nM | CN1CC[C@H](Oc2cc(Oc3ccc(C(=O)N4CCC4)nc3)cc(C(=O)Nc3cnccn3)c2)C1=O [Example 12, 3-[6-(Azetidine-1-carbonyl)pyridin-3-yl]oxy-5-[(3S)-1-methyl-2-oxo-pyrrolidin-3-yl]oxy-N-pyrazin-2-yl-benzamide] |
|  | 390 nM | Cc1cnc(NC(=O)c2cc(Oc3ccc(C(=O)N(C)C)cc3Cl)cc(O[C@H]3CCN(C)C3=O)c2)cn1 [Example 26, 3-[2-Chloro-4-(dimethylcarbamoyl)phenoxy]-5-[(3S)-1-methyl-2-oxo-pyrrolidin-3-yl]oxy-N-(5-methylpyrazin-2-yl)benzamide] |
|  | 660 nM | Cc1cnc(NC(=O)c2cc(Oc3ccc4c(c3)OCCNS4(=O)=O)cc(O[C@H]3CCN(C)C3=O)c2)cn1 [Example 27, 3-[(6,6-dioxo-2-oxa-6-λ^6-thia-5-azabicyclo[5.4.0]undeca-8,10,12-trien-10-yl)oxy]-5-[(3S)-1-methyl-2-oxo-pyrrolidin-3-yl]oxy-N-(5-methylpyrazin-2-yl)benzamide] |
|  | 570 nM | Cc1cnc(NC(=O)c2cc(Oc3ccc(S(C)(=O)=O)nc3)cc(O[C@H]3CCN(C)C3=O)c2)cn1 [Example 28, 3-[(3S)-1-methyl-2-oxo-pyrrolidin-3-yl]oxy-N-(5-methylpyrazin-2-yl)-5-(6-methylsulfonylpyridin-3-yl)oxy-benzamide] |
|  | 100 nM | Cc1cnc(NC(=O)c2cc(Oc3ccc(C(=O)N(C)C)nc3)cc(O[C@H]3CCN(C)C3=O)c2)cn1 [Example 29, N,N-dimethyl-5-[3-[(3S)-1-methyl-2-oxo-pyrrolidin-3-yl]oxy-5-[(5-methylpyrazin-2-yl)carbamoyl]phenoxy]pyridine-2-carboxamide] |
|  | 60 nM | CN1COc2cc(Oc3cc(O[C@H]4CCN(C)C4=O)cc(C(=O)Nc4cc[nH]n4)c3)ccc2C1=O [Example 30, 3-[(9-methyl-10-oxo-7-oxa-9-azabicyclo[4.4.0]deca-2,4,11-trien-4-yl)oxy]-5-[(3S)-1-methyl-2-oxo-pyrrolidin-3-yl]oxy-N-(1H-pyrazol-3-yl)benzamide] |
|  | 1080 nM | Cc1nsc(NC(=O)c2cc(Oc3cnc(C(=O)N(C)C)cn3)cc(O[C@H]3CCN(C)C3=O)c2)n1 [Example 31, N,N-dimethyl-5-[3-[(3S)-1-methyl-2-oxo-pyrrolidin-3-yl]oxy-5-[(3-methyl-1,2,4-thiadiazol-5-yl)carbamoyl]phenoxy]pyrazine-2-carboxamide] |
|  | 60 nM | Cc1csc(NC(=O)c2cc(Oc3cnc(C(=O)N(C)C)cn3)cc(O[C@H]3CCN(C)C3=O)c2)n1 [Example 32, N,N-Dimethyl-5-[3-[(3S)-1-methyl-2-oxo-pyrrolidin-3-yl]oxy-5-[(4-methyl-1,3-thiazol-2-yl)carbamoyl]phenoxy]pyrazine-2-carboxamide] |
